# Assays:
# Test in all cases: relative viability (nuclei count vs DMSO), 5 days (fraction); higher = more cells survive
# [1] = system: PC-3 [JPC-3]
# Method in brief: (§1)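 Values are medians from duplicate plates. Each reflects relative viability, defined as the nuclei count of treated wells over that of vehicle wells. Lung cancer cell lines in 1536-well plates were pin-tool dosed one day after seeding with one drug alone or with a fixed anchor-drug dose plus five library-drug doses (not always all listed) in √10 steps, then fixed, stained and imaged at 4× after 5 days.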
# [2] = system: NCI-H2087
# Method in brief: as §1
# [3] = system: HCC-366
# Method in brief: as §1
# [4] = system: NCI-H2228
# Method in brief: as §1
# [5] = system: RERF-LC-KJ
# Method in brief: as §1
# [6] = system: NCI-H1395
# Method in brief: as §1
# [7] = system: ABC-1
# Method in brief: as §1
# [8] = system: NCI-H460
# Method in brief: as §1
# [9] = system: LOU-NH91
# Method in brief: as §1
# [10] = system: NCI-H1793
# Method in brief: as §1
# [11] = system: UMC-11
# Method in brief: as §1
# [12] = system: NCI-H2405
# Method in brief: as §1
# [13] = system: HCC-78
# Method in brief: as §1
# [14] = system: LU99A
# Method in brief: as §1
# [15] = system: NCI-H3122
# Method in brief: as §1
# [16] = system: NCI-H2170
# Method in brief: as §1
# [17] = system: NCI-H1651
# Method in brief: as §1
# [18] = system: LC-2-ad
# Method in brief: as §1
# [19] = system: NCI-H1755
# Method in brief: as §1
# [20] = system: NCI-H1944
# Method in brief: as §1
# [21] = system: ChaGo-K-1
# Method in brief: as §1
# [22] = system: CAL-12T
# Method in brief: as §1
structure (smiles),measurement,setting,value
O=c1cc(N2CCOCC2)oc2c(-c3cccc4c3sc3ccccc34)cccc12 + O=C(c1cc(Cc2n[nH]c(=O)c3ccccc23)ccc1F)N1CCN(C(=O)C2CC2)CC1 [Olaparib] (partner 8 µM),relative viability,[1]; first compound 0.01 µM,1.07
same,relative viability,[1]; first compound 0.03162 µM,1.11
same,relative viability,[1]; first compound 0.1 µM,1.15
same,relative viability,[1]; first compound 0.3162 µM,1.14
same,relative viability,[1]; first compound 1 µM,1.09
same,relative viability,[2]; first compound 0.01 µM,0.544
same,relative viability,[2]; first compound 0.03162 µM,0.65
same,relative viability,[2]; first compound 0.1 µM,0.672
same,relative viability,[2]; first compound 0.3162 µM,0.552
same,relative viability,[2]; first compound 1 µM,0.587
same,relative viability,[3]; first compound 0.01 µM,0.368
same,relative viability,[3]; first compound 0.03162 µM,0.319
same,relative viability,[3]; first compound 0.1 µM,0.435
same,relative viability,[3]; first compound 0.3162 µM,0.346
same,relative viability,[3]; first compound 1 µM,0.386
same,relative viability,[4]; first compound 0.01 µM,0.646
same,relative viability,[4]; first compound 0.03162 µM,0.654
same,relative viability,[4]; first compound 0.1 µM,0.891
same,relative viability,[4]; first compound 0.3162 µM,0.803
same,relative viability,[4]; first compound 1 µM,0.571
same,relative viability,[5]; first compound 0.01 µM,1.03
same,relative viability,[5]; first compound 0.03162 µM,0.979
same,relative viability,[5]; first compound 0.1 µM,0.965
same,relative viability,[5]; first compound 0.3162 µM,0.703
same,relative viability,[5]; first compound 1 µM,0.893
same,relative viability,[6]; first compound 0.03162 µM,0.457
same,relative viability,[6]; first compound 0.1 µM,0.445
same,relative viability,[6]; first compound 0.3162 µM,0.467
same,relative viability,[6]; first compound 1 µM,0.498
same,relative viability,[7]; first compound 0.01 µM,0.917
same,relative viability,[7]; first compound 0.03162 µM,0.686
same,relative viability,[7]; first compound 0.1 µM,0.535
same,relative viability,[7]; first compound 0.3162 µM,0.677
same,relative viability,[7]; first compound 1 µM,0.726
same,relative viability,[8]; first compound 0.01 µM,0.452
same,relative viability,[8]; first compound 0.03162 µM,0.37
same,relative viability,[8]; first compound 0.1 µM,0.452
same,relative viability,[8]; first compound 0.3162 µM,0.403
same,relative viability,[8]; first compound 1 µM,0.406
same,relative viability,[9]; first compound 0.01 µM,0.855
same,relative viability,[9]; first compound 0.03162 µM,0.916
same,relative viability,[9]; first compound 0.1 µM,0.96
same,relative viability,[9]; first compound 0.3162 µM,0.921
same,relative viability,[9]; first compound 1 µM,0.884
same,relative viability,[10]; first compound 0.01 µM,0.77
same,relative viability,[10]; first compound 0.03162 µM,0.857
same,relative viability,[10]; first compound 0.1 µM,0.928
same,relative viability,[10]; first compound 0.3162 µM,0.657
same,relative viability,[10]; first compound 1 µM,0.738
same,relative viability,[11]; first compound 0.01 µM,0.359
same,relative viability,[11]; first compound 0.03162 µM,0.432
same,relative viability,[11]; first compound 0.1 µM,0.895
same,relative viability,[11]; first compound 0.3162 µM,0.699
same,relative viability,[11]; first compound 1 µM,0.404
same,relative viability,[12]; first compound 0.01 µM,0.952
same,relative viability,[12]; first compound 0.03162 µM,0.912
same,relative viability,[12]; first compound 0.1 µM,0.945
same,relative viability,[12]; first compound 0.3162 µM,0.832
same,relative viability,[12]; first compound 1 µM,0.93
same,relative viability,[13]; first compound 0.01 µM,0.783
same,relative viability,[13]; first compound 0.03162 µM,0.687
same,relative viability,[13]; first compound 0.1 µM,0.644
same,relative viability,[13]; first compound 0.3162 µM,0.835
same,relative viability,[13]; first compound 1 µM,0.828
same,relative viability,[14]; first compound 0.01 µM,0.259
same,relative viability,[14]; first compound 0.03162 µM,0.273
same,relative viability,[14]; first compound 0.1 µM,0.277
same,relative viability,[14]; first compound 0.3162 µM,0.27
same,relative viability,[14]; first compound 1 µM,0.278
same,relative viability,[15]; first compound 0.01 µM,0.604
same,relative viability,[15]; first compound 0.03162 µM,0.679
same,relative viability,[15]; first compound 0.1 µM,0.566
same,relative viability,[15]; first compound 0.3162 µM,0.606
same,relative viability,[15]; first compound 1 µM,0.614
same,relative viability,[16]; first compound 0.01 µM,0.673
same,relative viability,[16]; first compound 0.03162 µM,0.589
same,relative viability,[16]; first compound 0.1 µM,0.526
same,relative viability,[16]; first compound 0.3162 µM,0.53
same,relative viability,[16]; first compound 1 µM,0.598
same,relative viability,[17]; first compound 0.01 µM,0.19
same,relative viability,[17]; first compound 0.03162 µM,0.188
same,relative viability,[17]; first compound 0.1 µM,0.179
same,relative viability,[17]; first compound 0.3162 µM,0.178
same,relative viability,[17]; first compound 1 µM,0.168
same,relative viability,[18]; first compound 0.01 µM,0.707
same,relative viability,[18]; first compound 0.03162 µM,0.694
same,relative viability,[18]; first compound 0.1 µM,0.77
same,relative viability,[18]; first compound 0.3162 µM,0.764
same,relative viability,[18]; first compound 1 µM,0.662
same,relative viability,[19]; first compound 0.01 µM,0.896
same,relative viability,[19]; first compound 0.03162 µM,0.891
same,relative viability,[19]; first compound 0.1 µM,0.869
same,relative viability,[19]; first compound 0.3162 µM,0.848
same,relative viability,[19]; first compound 1 µM,0.883
same,relative viability,[20]; first compound 0.01 µM,0.438
same,relative viability,[20]; first compound 0.03162 µM,0.406
same,relative viability,[20]; first compound 0.1 µM,0.4
same,relative viability,[20]; first compound 0.3162 µM,0.384
same,relative viability,[20]; first compound 1 µM,0.393
same,relative viability,[21]; first compound 0.01 µM,0.421
same,relative viability,[21]; first compound 0.03162 µM,0.439
same,relative viability,[21]; first compound 0.1 µM,0.434
same,relative viability,[21]; first compound 0.3162 µM,0.447
same,relative viability,[21]; first compound 1 µM,0.447
same,relative viability,[22]; first compound 0.01 µM,0.682
same,relative viability,[22]; first compound 0.03162 µM,0.707
same,relative viability,[22]; first compound 0.1 µM,0.75
same,relative viability,[22]; first compound 0.3162 µM,0.693
same,relative viability,[22]; first compound 1 µM,0.744

# From the supplement of paper PMC10307832
